Experimental data: patent US20210290513A1, “COMPOSITION COMPRISING KAKKALIDE” (LG HOUSEHOLD & HEALTH CARE LTD., priority 2020, published 2021)

Experiments:
Type in all cases: cell-based
B-16 mouse melanoma cell = assay: Total melanin amount in mouse melanoma cell culture (brightening effect); settings: B16, 72 h, B-16 melanoma cells cultured three days, vs negative control (DMSO), read-out: Inhibition rate (%) of melanin production
Procedure: In order to evaluate a brightening effect according to inhibition of melanogenesis, an extract was added to a mouse melanoma cell (B-16 mouse melanoma cell) culture, and the total amount of melanin was measured according to a method described in Lotan R. et al. (Cancer Res. 40:3345-3350, 1980). For this experiment, toxicity with respect to the mouse melanoma cells was first evaluated, and the brightening effect was evaluated at a concentration not inducing toxicity. Dimethyl sulfoxide (DMSO) was used as a negative control, and arbutin was used as a positive control.
Specifically, A compound of Formula 1 was added to a medium of each sample so that the final concentration of the compound of Formula 1 is 1 ppm, 10 ppm, 100 ppm, or 500 ppm, and Daidzein was also added to the medium so that the final concentration of Daidzein is 1 ppm, 10 ppm, 100 ppm, or 500 ppm. Arbutin was added to the medium so that the final concentration was 100 ppm. In each of the mediums, melanoma cells were cultured for three days. Subsequently, the cells were treated with trypsin, detached from the culture plate, and centrifuged, and then melanin was extracted. The detached cells were boiled for 10 minutes by adding 1 ml of a sodium hydroxide solution (1 N concentration) so that melanin was dissolved, and by measuring an absorbance at 400 nm using a spectrophotometer, the amount of melanin production was measured.
The amount of melanin was measured by a method of indicating absorbance per unit cell count (1×10^6 cells), The amount of melanin production in each experimental group with respect to the negative control was calculated as a relative value, and the value obtained by subtracting the amount of melanin production in each experimental group from 100% of the melanin production amount in the negative control group was expressed as the inhibition rate (%). The experiment was performed three times for each sample, and averages of measurements were obtained.

[1] = test system: Wnt/β-catenin signaling pathway; assay: Wnt/β-catenin signaling pathway activation, TOPflash luciferase reporter in human dermal papilla cells; settings: untreated control = 100
Procedure: The effect of the compound of Chemical Formula 1 on the activation of the Wnt/β-catenin signaling pathway was investigated using TOPflash (T-cell factor reporter plasmid) Kit (Millipore, USA). Human dermal papilla cells were inoculated into a 24-well plate at 2×10^5/well, cultured for 24 hours, treated with the compound of Chemical Formula 1 so that the concentration was 10 μg/ml, and then additionally cultured for 15 hours, and firefly luciferase activity was subsequently measured using a dual luciferase assay kit (Promega, USA).
In order to accurately measure the luciferase activity, the experiment was performed three times for each sample, an increase rate (%) was calculated as a ratio of activity relative to that of a control was calculated, and the results are shown in Table 5. The negative control was an untreated group. As a positive control, 6-bromoindirubin-3′-oxime (BIO) was used, and BIO is a material known to inhibit GSK-3 in the Wnt signaling system.

dermal papilla cells = assay: Dermal papilla cell proliferation (CCK-8); settings: 100 ppm, CCK-8 on day 5, Control (DMEM) = 1.00
Procedure: This experiment was performed using the following media 1) to 3):
1) DMEM (10% FBS, 1% P/S)
2) Depletion medium: 5% charcoal-stripped, FBS-containing, phenol red-free DMEM
3) Serum-free (SF) medium: DMEM (1% P/S).
On days 0 to 5, the following various experiments were performed to confirm a dermal papilla cell proliferation effect.
Day 0: At 10 a.m., cells were seeded (5,000 cells/well)
Day 1: At 10 a.m., after changing the depletion medium, cells were cultured for 24 hours.
Day 2: At 10 a.m., CCK-8 was measured (average initial value: 0.586) before the cells were treated with a sample, and subsequently, cells were treated with a sample.

[2] = test system: type I collagen synthesis in human-derived fibroblasts; assay: Type I collagen synthesis in human-derived fibroblasts (PICP EIA kit); settings: for Increase rate (%) of collagen synthesis: relative to negative control; for Amount of type I collagen production: negative control 151.4
Procedure: A sample was added to a human-derived fibroblast culture medium to evaluate the effect of promoting type I collagen synthesis at the cellular level. The synthesized collagen was quantified using a Procollagen Type I C-Peptide Enzyme Immunoassay kit (PICP EIA kit). In order to measure the amount of collagen synthesis, a compound of Formula 1 was added to the fibroblast culture medium (Dulbecco's Modified Eagle Medium (DMEM)) so that the final concentration of compound of Formula 1 was 0.1 ppm, 1 ppm, or 10 ppm in each medium, and Genistein was also added to the fibroblast culture medium (Dulbecco's Modified Eagle Medium (DMEM)) so that final concentration of Genistein was 0.1 ppm, 1 ppm, or 10 ppm. After culturing for 48 hours, and then the culture medium was taken, and, by using the PICP EIA kit, the degree of type I collagen synthesis at each concentration was measured at 450 nm using a spectrophotometer. In order to compare the effect, the culture medium of fibroblasts without sample treatment was used as a negative control, and 10 ng/ml TGF-β was used as a positive control, and the degrees of collagen synthesis therein were measured in the same manner as for testing an added sample. A rate of increase in collagen synthesis was calculated as a ratio of the amount of collagen production relative to that of the negative control, and the results are shown in Table 2. The experiment was performed three times for each sample, and averages of measurements were obtained.

AQP3 = AQP3 mRNA expression in human keratinocytes (real-time quantitative PCR); settings: HaCaT, negative control normalized to 1.0
Procedure: (§1) Human keratinocytes (HaCaT) were dispensed into a 6-well cell culture plate at 2×10^5 cells/well and cultured for 24 hours in a DMEM medium containing 10% fetal bovine serum (FBS). The medium was replaced with a DMEM medium without 10% FBS and calcium (Ca^2+), and the cultured cells were treated with the compound of Chemical Formula 1, which had been diluted with a medium, for 24 hours. After the 24 hours had passed, the cells were recovered and then washed with a cold phosphate buffer solution (PBS), and total RNA was extracted using an RNeasy mini kit (Qiagen, Germany). A reverse transcription reaction was performed using RNA and a cDNA Synthesis kit (PhileKorea, Korea). The synthesized cDNA was diluted with water after being quantified, and the same amount thereof was used for all reactions. HAS2, HAS3, and AQP3 primers from a TaqMan® Universal Master Mix II and TaqMan® Gene Expression Assays (Thermo Fisher, USA) were used. Real-time quantitative polymerase chain reaction (PCR) was carried out using a StepOnePlus® Real-time PCR System (Applied Biosystems, USA). The experimental results were obtained through calculation performed by a ΔΔCt method based on a housekeeping gene glyceraldehyde-3-phosphate dehydrogenase (GAPDH). The levels of HAS2, HAS3, and AQP3 gene expression in each sample were quantified based on the mRNA expression level (normalized to 1.0) of the negative control to which the sample was not added, and the results are shown in Table 3. As a positive control, 10 ng/ml EGF recombinant human protein (Life Technologies, USA) was used.

HAS2 = HAS2 mRNA expression in human keratinocytes (real-time quantitative PCR); settings: HaCaT, negative control normalized to 1.0
Procedure: as §1

E. coli = assay: Minimum inhibitory concentration, serial dilution method; settings: MHB2 medium, about 10^6/well
Procedure: (§2) This experiment was carried out by a serial dilution method and a method of measuring a minimum inhibitory concentration (MIC), using an MHB2 medium (for bacteria) or a PDB medium (for fungi). The bacteria or fungi were inoculated at about 10^6/well.

C. albicans = assay: as above; settings: PDB medium, about 10^6/well
Procedure: as §2

S. aureus = assay: as above; settings: MHB2 medium, about 10^6/well
Procedure: as §2

A. niger = assay: as above; settings: PDB medium, about 10^6/well
Procedure: as §2

Pityrosporum ovale = assay: as above; settings: about 10^6/well
Procedure: as §2

P. aeruginosa = assay: as above; settings: MHB2 medium, about 10^6/well
Procedure: as §2

HAS3 = HAS3 mRNA expression in human keratinocytes (real-time quantitative PCR); settings: HaCaT, negative control normalized to 1.0
Procedure: as §1

OC[C@H]1O[C@@H](Oc2ccc(O)cc2)[C@H](O)[C@@H](O)[C@@H]1O [Arbutin, arbutin]
inhibition at 100 ppm (B-16 mouse melanoma cell): 56%

O=C1Nc2cc(Br)ccc2/C1=C1/Nc2ccccc2/C1=N\O [BIO, 6-bromoindirubin-3′-oxime]
Increase rate (%) of luciferase activity ([1]; 1 μM, positive control): 153%

COc1ccc(-c2coc3cc(O[C@@H]4O[C@H](CO[C@@H]5OC[C@@H](O)[C@H](O)[C@H]5O)[C@@H](O)[C@H](O)[C@H]4O)c(OC)c(O)c3c2=O)cc1 [Chemical Formula 1, kakkalide]
Average (ratio) dermal papilla cell proliferation (dermal papilla cells): 1.34 | Increase rate (%) of collagen synthesis ([2]; 0.1 ppm, 48 hours): 4.19% | Amount of type I collagen production ([2]; 0.1 ppm, 48 hours): 157.74 ng/mL | Increase rate (%) of collagen synthesis ([2]; 1 ppm, 48 hours): 12.56% | Amount of type I collagen production ([2]; 1 ppm, 48 hours): 170.41 ng/mL | Increase rate (%) of collagen synthesis ([2]; 10 ppm, 48 hours): 16.07% | Amount of type I collagen production ([2]; 10 ppm, 48 hours): 175.72 ng/mL | Increased AQP3 mRNA amount (AQP3; 10 ppm, 24 hours): 1.75 | Increased AQP3 mRNA amount (AQP3; 100 ppm, 24 hours): 4.17 | inhibition at 1 ppm (B-16 mouse melanoma cell): 35.3% | inhibition at 10 ppm (B-16 mouse melanoma cell): 48% | inhibition at 100 ppm (B-16 mouse melanoma cell): 57.6% | inhibition at 500 ppm (B-16 mouse melanoma cell): 68.4% | Increased HAS2 mRNA amount (HAS2; 10 ppm, 24 hours): 2.28 | Increased HAS2 mRNA amount (HAS2; 100 ppm, 24 hours): 6.64 | Minimum inhibitory concentration (%) E. coli (E. coli): 0.05% | Minimum inhibitory concentration (%) C. albicans (C. albicans): 0.05% | Minimum inhibitory concentration (%) S. aureus (S. aureus): 0.01% | Minimum inhibitory concentration (%) A. niger (A. niger): 0.1% | Minimum inhibitory concentration (%) Pityrosporum ovale (Pityrosporum ovale): 0.0003% | Minimum inhibitory concentration (%) P. aeruginosa (P. aeruginosa): 0.05% | Increase rate (%) of luciferase activity ([1]; 10 μg/ml, 15 hours): 160% | Increased HAS3 mRNA amount (HAS3; 10 ppm, 24 hours): 3.97 | Increased HAS3 mRNA amount (HAS3; 100 ppm, 24 hours): 5.23

O=c1c(-c2ccc(O)cc2)coc2cc(O)ccc12 [Daidzein]
inhibition at 1 ppm (B-16 mouse melanoma cell): 18.7% | inhibition at 10 ppm (B-16 mouse melanoma cell): 16.4% | inhibition at 100 ppm (B-16 mouse melanoma cell): 20.8% | inhibition at 500 ppm (B-16 mouse melanoma cell): 30.2%

O=c1c(-c2ccc(O)cc2)coc2cc(O)cc(O)c12 [Genistein]
Average (ratio) dermal papilla cell proliferation (dermal papilla cells): 1.10 | Increase rate (%) of collagen synthesis ([2]; 0.1 ppm, 48 hours): 2.53% | Amount of type I collagen production ([2]; 0.1 ppm, 48 hours): 155.24 ng/mL | Increase rate (%) of collagen synthesis ([2]; 1 ppm, 48 hours): 4.85% | Amount of type I collagen production ([2]; 1 ppm, 48 hours): 158.75 ng/mL | Increase rate (%) of collagen synthesis ([2]; 10 ppm, 48 hours): 8.59% | Amount of type I collagen production ([2]; 10 ppm, 48 hours): 165.93 ng/mL | Increased AQP3 mRNA amount (AQP3; 10 ppm, 24 hours): 1.09 | Increased AQP3 mRNA amount (AQP3; 100 ppm, 24 hours): 2.47 | Increased HAS2 mRNA amount (HAS2; 10 ppm, 24 hours): 1.06 | Increased HAS2 mRNA amount (HAS2; 100 ppm, 24 hours): 2.74 | Minimum inhibitory concentration (%) E. coli (E. coli): 0.1% | Minimum inhibitory concentration (%) C. albicans (C. albicans): 0.08% | Minimum inhibitory concentration (%) S. aureus (S. aureus): 0.03% | Minimum inhibitory concentration (%) A. niger (A. niger): 0.2% | Minimum inhibitory concentration (%) Pityrosporum ovale (Pityrosporum ovale): 0.0005% | Minimum inhibitory concentration (%) P. aeruginosa (P. aeruginosa): 0.07% | Increase rate (%) of luciferase activity ([1]; 10 μg/ml, 15 hours): 140% | Increased HAS3 mRNA amount (HAS3; 10 ppm, 24 hours): 2.86 | Increased HAS3 mRNA amount (HAS3; 100 ppm, 24 hours): 3.34

EGF: EGF recombinant human protein (Life Technologies, USA), positive control
Increased AQP3 mRNA amount (AQP3; 10 ng/ml, positive control): 1.09 | Increased HAS2 mRNA amount (HAS2; 10 ng/ml, positive control): 16.42 | Increased HAS3 mRNA amount (HAS3; 10 ng/ml, positive control): 5.24

TGF-β
Increase rate (%) of collagen synthesis ([2]; 10 ng/ml, positive control): 13.84% | Amount of type I collagen production ([2]; 10 ng/ml, positive control): 172.35 ng/mL

zinc pyrithione
Minimum inhibitory concentration (%) E. coli (E. coli): 0.002% | Minimum inhibitory concentration (%) C. albicans (C. albicans): 0.02% | Minimum inhibitory concentration (%) S. aureus (S. aureus): 0.001% | Minimum inhibitory concentration (%) A. niger (A. niger): 0.02% | Minimum inhibitory concentration (%) Pityrosporum ovale (Pityrosporum ovale): 0.0002% | Minimum inhibitory concentration (%) P. aeruginosa (P. aeruginosa): 0.002%
